{"source": "patent US20070128217A1", "about": "(priority 2003, published 2007)", "key": {"[1]": {"test_system": "rabbit serum obtained by immunizing a rabbit with the SARS-CoV strain Frankfurt 1", "type": "binding", "design": "Binding of a rabbit serum to linear peptides / Binding of a rabbit serum to looped peptides / Rabbit serum linear peptides / Rabbit serum looped peptides / Binding of a rabbit serum to linear peptides of protein N of SARS-CoV Urbani (Rabbit serum linear peptides) / Binding of a rabbit serum to looped/cyclic peptides of protein N of SARS-CoV Urbani (Rabbit serum looped peptides): unit not given here"}, "[2]": {"test_system": "antibodies in sera from SARS patients (sera 1a, 1b, 2, 6, 37, 62, London, SARS-yellow, SARS-green)", "type": "binding, human", "design": "Binding of serum 6 to linear peptides of protein X1 of SARS-CoV Urbani / Binding of serum 37 to linear peptides of protein X1 of SARS-CoV Urbani / Binding of serum 6 to looped/cyclic peptide (PEPSCAN-ELISA) / Binding of serum 37 to looped/cyclic peptide (PEPSCAN-ELISA) / Binding of serum 37 to looped/cyclic peptides of protein X1 of SARS-CoV Urbani / Binding of serum 6 to linear peptides of protein X2 / Binding of serum 37 to linear peptides of protein X2 / Binding of serum 37 to looped/cyclic peptides of protein X2 of SARS-CoV Urbani / Binding of serum 6 to linear peptides of protein M of SARS-CoV Urbani / Binding of serum 37 to linear peptides of protein M of SARS-CoV Urbani / Binding of serum 6 to looped/cyclic peptides of protein M of SARS-CoV Urbani / Binding of serum 37 to looped/cyclic peptides of protein M of SARS-CoV Urbani / Binding of serum 6 to linear peptides of protein X3 of SARS-CoV Urbani / Binding of serum 37 to linear peptides of protein X3 of SARS-CoV Urbani / Binding of serum 37 to looped/cyclic peptides of protein X3 of SARS-CoV Urbani / Binding of serum 6 to linear peptides of protein X4 of SARS-CoV Urbani / Binding of serum 37 to linear peptides of protein X4 of SARS-CoV Urbani / Binding of serum 37 to looped/cyclic peptides of protein X4 of SARS-CoV Urbani / Binding of serum 6 to linear peptides of protein X5 of SARS-CoV Urbani / Binding of serum 37 to linear peptides of protein X5 of SARS-CoV Urbani / Binding of serum 37 to looped/cyclic peptides of protein X5 of SARS-CoV Urbani / Binding of serum 6 to linear peptides of protein N of SARS-CoV Urbani / Binding of serum 37 to linear peptides of protein N of SARS-CoV Urbani / Binding of serum 6 to linear peptide (PEPSCAN-ELISA) / Binding of serum 1a to looped/cyclic peptides of protein N of SARS-CoV Urbani / Binding of serum 1b to looped/cyclic peptides of protein N of SARS-CoV Urbani / Binding of serum 2 to looped/cyclic peptides of protein N of SARS-CoV Urbani / Binding of serum 6 to looped/cyclic peptides of protein N of SARS-CoV Urbani / Binding of serum 37 to looped/cyclic peptides of protein N of SARS-CoV Urbani / Binding of serum 62 to looped/cyclic peptides of protein N of SARS-CoV Urbani / Binding of serum London to looped/cyclic peptides of protein N of SARS-CoV Urbani / Binding of serum SARS-green to looped/cyclic peptides of protein N of SARS-CoV Urbani: unit not given here"}, "[3]": {"test_system": "control sera (pooled serum of ten healthy LUMC hospital workers; commercial negative donor pooled serum from the Dutch bloodbank)", "type": "binding, human", "design": "Binding of Control serum LUMC to linear peptides / Binding of Control serum Blood-bank to linear peptides / Binding of Control serum LUMC to looped peptides / Binding of Control Serum Blood-Bank to Looped peptides / Binding of Control serum LUMC to linear peptides of the protein M of SARS-CoV Urbani / Binding of Control serum Blood-bank to linear peptides of the protein M of SARS-CoV Urbani / Binding of Control serum LUMC to looped peptides of the protein M of SARS-CoV Urbani / Binding of Control Serum Blood-Bank to Looped peptides of the protein M of SARS-CoV Urbani: unit not given here"}}, "data": [{"sequence": "HLRMAGHPLGRCDIK", "values": [{"measurement": "Rabbit serum linear peptides", "setting": "[1]", "value": 0.0}, {"measurement": "Rabbit serum looped peptides", "setting": "[1]", "value": 0.5}]}, {"sequence": "IAMACIVGLMWLSYF", "values": [{"measurement": "Binding of serum 1a to linear peptides of protein M of SARS-CoV Urbani", "setting": "[2]", "value": 0.6}, {"measurement": "Binding of serum 1a to looped/cyclic peptides of protein M of SARS-CoV Urbani", "setting": "[2]", "value": 0.6}, {"measurement": "Binding of serum 1b to linear peptides of protein M of SARS-CoV Urbani", "setting": "[2]", "value": 0.5}, {"measurement": "Binding of serum 1b to looped/cyclic peptides of protein M of SARS-CoV Urbani", "setting": "[2]", "value": 0.4}, {"measurement": "Binding of serum 2 to linear peptides of protein M of SARS-CoV Urbani", "setting": "[2]", "value": 0.4}, {"measurement": "Binding of serum 2 to looped/cyclic peptides of protein M of SARS-CoV Urbani", "setting": "[2]", "value": 0.4}, {"measurement": "Binding of serum 6 to linear peptides of protein M of SARS-CoV Urbani", "setting": "[2]", "value": 0.3}, {"measurement": "Binding of serum 6 to looped/cyclic peptides of protein M of SARS-CoV Urbani", "setting": "[2]", "value": 0.7}, {"measurement": "Binding of serum 37 to linear peptides of protein M of SARS-CoV Urbani", "setting": "[2]", "value": 0.3}, {"measurement": "Binding of serum 37 to looped/cyclic peptides of protein M of SARS-CoV Urbani", "setting": "[2]", "value": 0.4}, {"measurement": "Binding of serum 62 to linear peptides of protein M of SARS-CoV Urbani", "setting": "[2]", "value": 0.3}, {"measurement": "Binding of serum 62 to looped/cyclic peptides of protein M of SARS-CoV Urbani", "setting": "[2]", "value": 0.4}, {"measurement": "Binding of serum London to linear peptides of protein M of SARS-CoV Urbani", "setting": "[2]", "value": 0.3}, {"measurement": "Binding of serum London to looped/cyclic peptides of protein M of SARS-CoV Urbani", "setting": "[2]", "value": 0.2}, {"measurement": "Binding of serum SARS-green to linear peptides of protein M of SARS-CoV Urbani", "setting": "[2]", "value": 0.3}, {"measurement": "Binding of serum SARS-green to looped/cyclic peptides of protein M of SARS-CoV Urbani", "setting": "[2]", "value": 0.3}, {"measurement": "Binding of serum SARS-yellow to linear peptides of protein M of SARS-CoV Urbani", "setting": "[2]", "value": 0.2}, {"measurement": "Binding of serum SARS-yellow to looped/cyclic peptides of protein M of SARS-CoV Urbani", "setting": "[2]", "value": 0.6}, {"measurement": "Binding of Control Serum Blood-Bank to Looped peptides of the protein M of SARS-CoV Urbani", "setting": "[3]", "value": 0.6}, {"measurement": "Binding of Control serum Blood-bank to linear peptides of the protein M of SARS-CoV Urbani", "setting": "[3]", "value": 0.5}, {"measurement": "Binding of Control serum LUMC to linear peptides of the protein M of SARS-CoV Urbani", "setting": "[3]", "value": 0.6}, {"measurement": "Binding of Control serum LUMC to looped peptides of the protein M of SARS-CoV Urbani", "setting": "[3]", "value": 0.7}]}, {"sequence": "IANACIVGLMWLSYF", "values": [{"measurement": "Rabbit serum linear peptides", "setting": "[1]", "value": 0.1}, {"measurement": "Rabbit serum looped peptides", "setting": "[1]", "value": 0.0}]}, {"sequence": "IGAVIIRGHLRMAGH", "values": [{"measurement": "Rabbit serum linear peptides", "setting": "[1]", "value": 0.3}, {"measurement": "Rabbit serum looped peptides", "setting": "[1]", "value": 0.8}]}, {"sequence": "IGVAFLAVPQSATKI", "values": [{"measurement": "Binding of Control Serum Blood-Bank to Looped peptides", "setting": "[3]", "value": 0.5}, {"measurement": "Binding of Control serum Blood-bank to linear peptides", "setting": "[3]", "value": 0.8}, {"measurement": "Binding of Control serum LUMC to linear peptides", "setting": "[3]", "value": 0.8}, {"measurement": "Binding of Control serum LUMC to looped peptides", "setting": "[3]", "value": 0.5}]}, {"sequence": "IMRCWLCWKCKSKNP", "values": [{"measurement": "Binding of serum 1a to looped/cyclic peptide (PEPSCAN-ELISA)", "setting": "[2]", "value": 0.3}, {"measurement": "Binding of serum 1b to looped/cyclic peptide (PEPSCAN-ELISA)", "setting": "[2]", "value": 0.1}, {"measurement": "Binding of serum 2 to looped/cyclic peptide (PEPSCAN-ELISA)", "setting": "[2]", "value": 0.1}, {"measurement": "Binding of serum 6 to looped/cyclic peptide (PEPSCAN-ELISA)", "setting": "[2]", "value": 0.2}, {"measurement": "Binding of serum 37 to looped/cyclic peptide (PEPSCAN-ELISA)", "setting": "[2]", "value": 0.3}, {"measurement": "Binding of serum 62 to looped/cyclic peptide (PEPSCAN-ELISA)", "setting": "[2]", "value": 0.3}, {"measurement": "Binding of serum London to looped/cyclic peptide (PEPSCAN-ELISA)", "setting": "[2]", "value": 0.1}, {"measurement": "Binding of serum SARS-green to looped/cyclic peptide (PEPSCAN-ELISA)", "setting": "[2]", "value": 0.1}, {"measurement": "Binding of serum SARS-yellow to looped/cyclic peptide (PEPSCAN-ELISA)", "setting": "[2]", "value": 0.0}, {"measurement": "Recognition of the peptide by sera of SARS-CoV infected individuals, and form (linear, looped/cyclic) in which it is recognized", "setting": "[2]", "value": "recognized in linear form"}, {"measurement": "Binding of Control Serum Blood-Bank to Looped peptides", "setting": "[3]", "value": 0.4}, {"measurement": "Binding of Control serum Blood-bank to linear peptides", "setting": "[3]", "value": 0.5}, {"measurement": "Binding of Control serum LUMC to linear peptides", "setting": "[3]", "value": 0.5}, {"measurement": "Binding of Control serum LUMC to looped peptides", "setting": "[3]", "value": 0.2}]}]}
